Drawing on US10766869B2, “Triazoles for the treatment of demyelinating dieases” (Vertex Pharmaceuticals Incorporated, priority 2015, dated 2020), this text covers fold induction for 27 molecules.

The assay deals with primary rat mixed cortical cells. The experiment in a line: In vitro myelination assay (MBP positive myelin strands, fold myelin pixels above background). As to conditions: Rattus norvegicus, read-out: Fold myelin pixels above background relative to baseline of no added compound; for fold induction at 1 µM: 1.0 μM compound; for fold induction at 10 µM: 10.0 μM compound. It is filed as cell-based. In short, it runs like this:
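Myelination read as total MBP-immunopositive strand pixels per well, imaged at 10× after fixation on day 14 and expressed relative to untreated wells, at 1.0 and 10.0 μM. Cells: dissociated postnatal day 1 rat cortex, cultured two weeks with compound, re-dosed at days 6 and 10.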

Each structure is given as a SMILES string. Some results are limits rather than exact numbers.

Turning to `COC1CCN(c2cc(C)cc(Nc3ncn(-c4cc(F)cc(F)c4)n3)c2)CC1` [Compound 1006, 1-(3,5-difluorophenyl)-N-[3-(4-methoxy-1-piperidyl)-5-methyl-phenyl]-1,2,4-triazol-3-amine], the fold induction at 1 µM lay within 10 to 100 and the fold induction at 10 µM was in the range of 1 to 10.
The like results for `Cc1cc(Nc2ncn(-c3cc(F)cc(F)c3)n2)c(F)c(NC2CCCC2N2CCOCC2)c1` (stereo not drawn) [Compound 1007, N3-[1-(3,5-difluorophenyl)-1,2,4-triazol-3-yl]-2-fluoro-5-methyl-N1-(2-morpholinocyclopentyl)benzene-1,3-diamine] were, in that order, 1 to 10 and 10 to 100.
With `Cc1cc(NCCOC2CCC2)cc(Nc2ncn(-c3cc(F)cc(F)c3)n2)c1` [Compound 1008, N3-[2-(cyclobutoxy)ethyl]-N1-[1-(3,5-difluorophenyl)-1,2,4-triazol-3-yl]-5-methyl-benzene-1,3-diamine], the fold induction at 1 µM fell in the range of 10 to 100 and the fold induction at 10 µM lay in the range of 1 to 10.
For `Cc1cc(Nc2ncn(-c3cc(F)cc(F)c3)n2)cc(N2CC(O)C(N3CCCC3)C2)c1` (stereo not drawn) [Compound 1010, 1-[3-[[1-(3,5-difluorophenyl)-1,2,4-triazol-3-yl]amino]-5-methyl-phenyl]-4-pyrrolidin-1-yl-pyrrolidin-3-ol], the fold induction at 1 µM was in the range of 1 to 10 and the fold induction at 10 µM was ≤ 1.
The like results for `COCCN1CCN(c2cc(C)cc(Nc3ncn(-c4cc(F)cc(F)c4)n3)c2)CC1C` (stereo not drawn) [Compound 1011, 1-(3,5-difluorophenyl)-N-[3-[4-(2-methoxyethyl)-3-methyl-piperazin-1-yl]-5-methyl-phenyl]-1,2,4-triazol-3-amine] were, in that order, 10 to 100 and ≤ 1.
Consider `Cc1cc(Nc2ncn(-c3cc(F)cc(F)c3)n2)cc(N2CCCC2CN2CCOCC2)c1` (stereo not drawn) [Compound 1012, 1-(3,5-difluorophenyl)-N-[3-methyl-5-[2-(morpholinomethyl)pyrrolidin-1-yl]phenyl]-1,2,4-triazol-3-amine], for which the fold induction at 1 µM was 1 to 10 and the fold induction at 10 µM was ≤ 1.
The like results for `Cc1cc(Nc2ncn(-c3cc(F)cc(F)c3)n2)cc(NC2CCN(C3CCOCC3)CC2)c1` [Compound 1013, N3-[1-(3,5-difluorophenyl)-1,2,4-triazol-3-yl]-5-methyl-N1-(1-tetrahydropyran-4-yl-4-piperidyl)benzene-1,3-diamine] were, in that order, 10 to 100 and ≤ 1.
`Cc1cc(Nc2ncn(-c3cc(F)cc(F)c3)n2)cc(N2CCC(OC3CCOC3)CC2)c1` (stereo not drawn) [Compound 1014, 1-(3,5-difluorophenyl)-N-[3-methyl-5-(4-tetrahydrofuran-3-yloxy-1-piperidyl)phenyl]-1,2,4-triazol-3-amine]: the fold induction at 1 µM lay within 1 to 10 and the fold induction at 10 µM lay in the range of 1 to 10.
As to `Cc1cc(Nc2ncn(-c3cc(F)cc(F)c3)n2)cc(N2CCC(N(C)CCO)CC2)c1` [Compound 1015, 2-[[1-[3-[[1-(3,5-difluorophenyl)-1,2,4-triazol-3-yl]amino]-5-methyl-phenyl]-4-piperidyl]-methyl-amino]ethanol], the fold induction at 1 µM was ≤ 1 and the fold induction at 10 µM was ≤ 1.
With `Cc1cc(NC2(C)COC2)cc(Nc2ncn(-c3cc(F)cc(F)c3)n2)c1F` [Compound 1016, N3-[1-(3,5-difluorophenyl)-1,2,4-triazol-3-yl]-4-fluoro-5-methyl-N1-(3-methyloxetan-3-yl)benzene-1,3-diamine], the fold induction at 1 µM was 10 to 100 and the fold induction at 10 µM lay in the range of 1 to 10.
On to `CCN(CC)CC1CN(c2cc(C)cc(Nc3ncn(-c4cc(F)cc(F)c4)n3)c2)CCO1` (stereo not drawn) [Compound 1017, N-[3-[2-(diethylaminomethyl)morpholin-4-yl]-5-methyl-phenyl]-1-(3,5-difluorophenyl)-1,2,4-triazol-3-amine], for which the fold induction at 1 µM lay in the range of 10 to 100 and the fold induction at 10 µM was ≤ 1.
The like results for `Cc1cc(Nc2ncn(-c3cc(F)cc(F)c3)n2)cc(N2CCOC(CN(C)C)C2)c1` (stereo not drawn) [Compound 1018, 1-(3,5-difluorophenyl)-N-[3-[2-[(dimethylamino)methyl]morpholin-4-yl]-5-methyl-phenyl]-1,2,4-triazol-3-amine] were, in that order, 10 to 100 and ≤ 1.
Consider `Cc1cc(Nc2ncn(-c3cc(F)cc(F)c3)n2)cc(N2CCC(OC(C)C)CC2)c1` [Compound 1019, 1-(3,5-difluorophenyl)-N-[3-(4-isopropoxy-1-piperidyl)-5-methyl-phenyl]-1,2,4-triazol-3-amine], for which the fold induction at 1 µM was 1 to 10 and the fold induction at 10 µM fell in the range of 10 to 100.
`Cc1cc(NCC2(N3CCCC3)COC2)cc(Nc2ncn(-c3cc(F)cc(F)c3)n2)c1` [Compound 1020, N1-[1-(3,5-difluorophenyl)-1,2,4-triazol-3-yl]-5-methyl-N3-[(3-pyrrolidin-1-yloxetan-3-yl)methyl]benzene-1,3-diamine]: the fold induction at 1 µM was in the range of 10 to 100 and the fold induction at 10 µM lay in the range of 1 to 10.
The like results for `Cc1cc(NC2CCOCC2)cc(Nc2ncn(-c3cc(F)cc(F)c3)n2)c1F` [Compound 1021, N3-[1-(3,5-difluorophenyl)-1,2,4-triazol-3-yl]-4-fluoro-5-methyl-N1-tetrahydropyran-4-yl-benzene-1,3-diamine] were, in that order, 1 to 10 and ≤ 1.
For `Cc1cc(Nc2ncn(-c3cccnc3)n2)c(F)c(N2CCN(C3COC3)CC2)c1` [Compound 1022, N-[2-fluoro-5-methyl-3-[4-(oxetan-3-yl)piperazin-1-yl]phenyl]-1-(3-pyridyl)-1,2,4-triazol-3-amine], the fold induction at 1 µM fell in the range of 1 to 10 and the fold induction at 10 µM was in the range of 10 to 100.
As to `Cc1cc(Nc2ncn(-c3cc(F)cc(F)c3)n2)cc(N2CCC(N3CCOC(C)C3)CC2)c1` (stereo not drawn) [Compound 1023, 1-(3,5-difluorophenyl)-N-[3-methyl-5-[4-(2-methylmorpholin-4-yl)-1-piperidyl]phenyl]-1,2,4-triazol-3-amine], the fold induction at 1 µM fell in the range of 1 to 10 and the fold induction at 10 µM fell in the range of 10 to 100.
The like results for `Cc1cc(Nc2ncn(-c3cc(F)cc(F)c3)n2)cc(N2CCN(CC(C)(C)O)CC2C)c1` (stereo not drawn) [Compound 1024, 1-[4-[3-[[1-(3,5-difluorophenyl)-1,2,4-triazol-3-yl]amino]-5-methyl-phenyl]-3-methyl-piperazin-1-yl]-2-methyl-propan-2-ol] were, in that order, 10 to 100 and ≤ 1.
Turning to `CCN1CCN(C2CCN(c3cc(C)cc(Nc4ncn(-c5cc(F)cc(F)c5)n4)c3)CC2)CC1` [Compound 1025, 1-(3,5-difluorophenyl)-N-[3-[4-(4-ethylpiperazin-1-yl)-1-piperidyl]-5-methyl-phenyl]-1,2,4-triazol-3-amine], the fold induction at 1 µM fell in the range of 1 to 10 and the fold induction at 10 µM lay within 10 to 100.
With `Cc1cc(Nc2ncn(-c3cc(F)cc(F)c3)n2)cc(N2CCN(C)C(CCO)C2)c1` (stereo not drawn) [Compound 1026, 2-[4-[3-[[1-(3,5-difluorophenyl)-1,2,4-triazol-3-yl]amino]-5-methyl-phenyl]-1-methyl-piperazin-2-yl]ethanol], the fold induction at 1 µM fell in the range of 1 to 10 and the fold induction at 10 µM fell in the range of 1 to 10.
As to `Cc1cc(Nc2ncn(-c3cc(F)cc(F)c3)n2)cc(N2CCOC(CN3CCCC3)C2)c1` (stereo not drawn) [Compound 1027, 1-(3,5-difluorophenyl)-N-[3-methyl-5-[2-(pyrrolidin-1-ylmethyl)morpholin-4-yl]phenyl]-1,2,4-triazol-3-amine], the fold induction at 1 µM lay within 1 to 10 and the fold induction at 10 µM was ≤ 1.
The like results for `COC1(CNc2cc(C)cc(Nc3ncn(-c4cc(F)cc(F)c4)n3)c2)CCC1` [Compound 1029, N1-[1-(3,5-difluorophenyl)-1,2,4-triazol-3-yl]-N3-[(1-methoxycyclobutyl)methyl]-5-methyl-benzene-1,3-diamine] were, in that order, 10 to 100 and 10 to 100.
The like results for `COCCC1CN(c2cc(C)cc(Nc3ncn(-c4cc(F)cc(F)c4)n3)c2)CCO1` (stereo not drawn) [Compound 1030, 1-(3,5-difluorophenyl)-N-[3-[2-(2-methoxyethyl)morpholin-4-yl]-5-methyl-phenyl]-1,2,4-triazol-3-amine] were, in that order, 10 to 100 and 1 to 10.
The like results for `CC(=O)N1CC(CNc2cc(C)cc(Nc3ncn(-c4cc(F)cc(F)c4)n3)c2)C1` [Compound 1031, 1-[3-[[3-[[1-(3,5-difluorophenyl)-1,2,4-triazol-3-yl]amino]-5-methyl-anilino]methyl]azetidin-1-yl]ethanone] were, in that order, 10 to 100 and ≤ 1.
For the molecule `[2H]C1([2H])N(c2cc(Nc3ncn(-c4cc(F)cc(F)c4)n3)cc(C(F)(F)F)c2)C([2H])([2H])C([2H])([2H])C([2H])([2H])C1([2H])[2H]` [Compound 1032, N-[3-(2,2,3,3,4,4,5,5,6,6-decadeuterio-1-piperidyl)-5-(trifluoromethyl)phenyl]-1-(3,5-difluorophenyl)-1,2,4-triazol-3-amine], the fold induction at 1 µM is 10 to 100 and the fold induction at 10 µM was in the range of 1 to 10.
The like results for `Cc1cc(Nc2ncn(-c3cc(F)cc(F)c3)n2)cc(N2CCN(CCOCCO)CC2)c1` [Compound 1033, 2-[2-[4-[3-[[1-(3,5-difluorophenyl)-1,2,4-triazol-3-yl]amino]-5-methyl-phenyl]piperazin-1-yl]ethoxy]ethanol] were, in that order, 1 to 10 and ≤ 1.
In the case of `Cc1cc(Nc2ncn(-c3ccccc3)n2)cc(N2CC3(C2)CN(C(C)C)C3)c1` [Compound 1034, N-[3-(2-isopropyl-2,6-diazaspiro[3.3]heptan-6-yl)-5-methyl-phenyl]-1-phenyl-1,2,4-triazol-3-amine], the fold induction at 1 µM fell in the range of 10 to 100 and the fold induction at 10 µM was ≤ 1.
